One assay deals with different cell lines. Format: cell-based. The following applies: 12 h. On the procedure:
• Figure 1 : Schematic representation of CADY cellular uptake mechanism. • Figure 2 : Structure of CADY in the interaction with the membrane. • (A) modelisation • (B) CD experiments - Far UV CD spectra were recorded on a JASCO J-810 spectro-polarimeter (JASCO Corporation, Tokyo, Japan) using a quartz cuvette with a path length of 1 mm. Spectra were corrected from the baseline buffer spectrum and smoothed with the JASCO software. Peptides were dissolved to a fixed concentration of 50 µM in water or in PBS. CD spectra were collected at 23°C and each spectrum represents the average of 4 scans. […] Binding of cargoes to CADY was monitored by steady state fluorescence spectroscopy. The intrinsic fluorescence associated to the Trp residues of CADY was used as sensitive probe. The fluorescence of CADY is centered at 340 nm upon excitation at 290 nm. […] The knockdown of the GAPDH at the protein level was quantified 48 hrs after transfection by Western blot analysis using polyclonal antibody (Ref. ABCAM GAPDH antibody - ab9385 rabbit polyclonal). […] The size of the particle was determined by light scattering and the knock down of GAPDH protein was quantified by Western blot analysis. • (B) role of the endosomal pathway on the efficiency of CADY-mediated siRNA delivery. […]

The subject of another assay is HS-68 and Hela cells. As to the kind of experiment: Toxicity of CADY variants, MTT cell viability assay (Table 1). It counts as cell-based. As to the method:
The toxicity of CADY peptides has been investigated on different cell lines. Cells were incubated in the presence of increasing concentrations of CADY (from 0.1 µM to 1 mM) for 12 hrs and cell viability was estimated using MTT assay.
A general note: Tetrazolium dyes change colour on reduction, which living cells bring about.

Assay [1] concerns 5PC3 or Human H1299 adenocarcinoma cells. The assay is described as follows: Intravenous injection of carrier/anti-cyclin B1 siRNA complexes, tumor growth. It counts as in vivo, NCR nude mice. Conditions: one intravenous injection, siRNA 10 µg, ratio 1:20.

Where two headings read alike, the source gives them in different places. Peptide text beside a SMILES is read from it.

As usually defined, the EC50 is the concentration that produces a half-maximal response.

Turning to `CC(=O)NCC(=O)N[C@@H](CC(C)C)C(=O)N[C@@H](Cc1c[nH]c2ccccc12)C(=O)N[C@@H](CCCNC(=N)N)C(=O)N[C@@H](C)C(=O)N[C@@H](CC(C)C)C(=O)N[C@@H](Cc1c[nH]c2ccccc12)C(=O)N[C@@H](CCCNC(=N)N)C(=O)N[C@@H](CC(C)C)C(=O)N[C@@H](CC(C)C)C(=O)N[C@@H](CCCNC(=N)N)C(=O)N[C@@H](CO)C(=O)N[C@@H](CC(C)C)C(=O)N[C@@H](Cc1c[nH]c2ccccc12)C(=O)N[C@@H](CCCNC(=N)N)C(=O)N[C@@H](CC(C)C)C(=O)N[C@@H](CC(C)C)C(=O)N[C@@H](Cc1c[nH]c2ccccc12)C(=O)N[C@@H](CCCCN)C(=O)N[C@@H](C)C(=O)NCCS` [CADY-1] (HELM PEPTIDE1{[ac].G.L.W.R.A.L.W.R.L.L.R.S.L.W.R.L.L.W.K.A.[SCCN[*:1]]}$$$$V2.0), the EC50 in the assay on different cell lines was 500 µM; in the assay on HS-68 and Hela cells (free peptide, MTT, read-out: free EC50) it was 400 µM.

On to `CC(C)CCC[C@@H](C)[C@H]1CC[C@H]2[C@@H]3CC=C4C[C@@H](OC(=O)NCC(=O)N[C@@H](CC(C)C)C(=O)N[C@@H](Cc5c[nH]c6ccccc56)C(=O)N[C@@H](CCCNC(=N)N)C(=O)N[C@@H](C)C(=O)N[C@@H](CC(C)C)C(=O)N[C@@H](Cc5c[nH]c6ccccc56)C(=O)N[C@@H](CCCNC(=N)N)C(=O)N[C@@H](CC(C)C)C(=O)N[C@@H](CC(C)C)C(=O)N[C@@H](CCCNC(=N)N)C(=O)N[C@@H](CO)C(=O)N[C@@H](CC(C)C)C(=O)N[C@@H](Cc5c[nH]c6ccccc56)C(=O)N[C@@H](CCCNC(=N)N)C(=O)N[C@@H](CC(C)C)C(=O)N[C@@H](CC(C)C)C(=O)N[C@@H](Cc5c[nH]c6ccccc56)C(=O)N[C@@H](CCCCN)C(=O)N[C@@H](C)C(=O)NCCS)CC[C@]4(C)[C@H]3CC[C@]12C` [CADY-S] (HELM PEPTIDE1{[CC(C)CCC[C@@H](C)[C@H]1CC[C@H]2[C@@H]3CC=C4C[C@@H](OC(=O)[*:2])CC[C@]4(C)[C@H]3CC[C@]12C].G.L.W.R.A.L.W.R.L.L.R.S.L.W.R.L.L.W.K.A.[SCCN[*:1]]}$$$$V2.0; N-terminus assumed), for which, in assay [1], the tumor growth result is given as “fully abolish the tumor growth”. In the assay with HS-68 and Hela cells (12 h), this compound had an EC50 of 200 µM.

Values taken from patent EP1795539B1, “Cell penetrating peptides for intracellular delivery of molecules” (Centre National de la Recherche Scientifique, priority 2005, dated 2007).
